Measurements reported in publication PMC7790557, “Pleiotropic Properties of Amphiphilic Dihydropyridines, Dihydropyridones, and Aminovinylcarbonyl Compounds” (Oxidative Medicine and Cellular Longevity, 2020).
Read-outs that look alike come from different tables or passages of the source.

Tests used:
MH-22A (mouse hepatoma) [1] = assay: Cytotoxicity, MTT assay, MH-22A; format: cell-based; conditions: 72 h exposure; for IC50: Mus musculus, read-out: MH-22A IC50 (MTT)
Source text: (§1) Reduction takes place only when mitochondrial reductase enzymes are active, and therefore, conversion is directly related to the number of viable cells which can be quantified by the absorbance of the solution (between λ = 500 and 600 nm) using a spectrophotometer.

[2] = tested on: NIH3T3 (mouse embryonic fibroblast); assay: Basal cytotoxicity test, Neutral Red Uptake (NRU) assay; conditions: for IC50: Mus musculus, NIH3T3, 24 h
Procedure: The NRU cytotoxicity assay procedure is based on the ability of viable cells to incorporate and bind neutral red, a supravital dye.
Balb/c NIH 3T3 (mouse Swiss albino embryo fibroblast, ATCC® CRL-1658™) cells (9000 cells/well) were placed into 96-well plates for 24 h in Dulbecco's modified Eagle's medium (DMEM) containing 5% fetal bovine serum. Then, the cells were exposed to the test compound over a range of seven concentrations (1000, 316, 100, 31, 10, 3, and 1 μg/ml) for 24 h. Untreated cells were used as a control. After 24 h, the medium was removed from all plates. Then, 150 μl of neutral red solution was added (0.05 mg/ml NR in DMEM 24 h preincubated at 37°C and then filtered before use through a 0.22 μm syringe filter). Plates were incubated for 3 h, and then, the cells were washed three times with PBS. The dye within viable cells was released by extraction with a mixture of acetic acid, ethanol, and water (1 : 50 : 49). The absorbance of neutral red was measured using a spectrophotometer multiplate reader (Tecan Infinite M1000) at 540 nm. The optical density (OD) was calculated using the following formula: OD (treated cells) × 100/OD (control cells). The IC50 values were calculated using the GraphPad Prism® 3.0 program.

[3] = tested on: HT-1080 (human lung fibrosarcoma); assay: Cytotoxicity, MTT assay, HT-1080; format: cell-based; conditions: 72 h exposure; for IC50: Homo sapiens, HT-1080, read-out: HT-1080 IC50 (MTT)
Source text: as §1

MH-22A (mouse hepatoma) [4] = assay: Cytotoxicity, crystal violet (CV) assay, MH-22A; format: cell-based; conditions: Mus musculus, 72 h exposure, read-out: MH-22A IC50 (CV)
Procedure: After incubation, the staining solution was removed. The cells were washed 4 times with water.

[5] = tested on: HT-1080 (human lung fibrosarcoma); assay: Cytotoxicity, crystal violet (CV) assay, HT-1080; conditions: Homo sapiens, HT-1080, 72 h, read-out: HT-1080 IC50 (CV)
NIH3T3 = assay: in vitro; conditions: for LD50 (calculated, NIH3T3): mouse
Source text: Data from the in vitro tests were used for estimating the starting dose for acute oral systemic toxicity tests in the rodent. The in vivo starting dose is an estimated LD50 value calculated by inserting the in vitroIC50 value into a regression formula: log LD50 (mM/kg) = 0.439 log IC50 (mM) + 0.621 [23–25]. […] Using an alternative in vitro method allows the comparison between possibly toxic new compounds and selecting compounds for further study vastly reducing the number of animal experiments.
Additionally, the compound influence on “normal” mouse fibroblasts (NIH3T3) was estimated for the studies of structure-activity relationships and exploration of the effect of substituents.

[6] = read-out: NIH3T3 IC50 (NR), Table 2, 24 h exposure

Molecule | IC50 (MH-22A (mouse hepatoma) [1]; Table 1) | IC50 ([2]; read-out: NIH3T3 IC50 (NR)) | IC50 ([3]; Table 1) | IC50 [5] | IC50 (MH-22A (mouse hepatoma) [4]; Table 2) | IC50 (MH-22A (mouse hepatoma) [1]; Table 2) | IC50 [2, 6] | IC50 ([3]; Table 2) | also measured
1,1'-((4-(2-(Difluoromethoxy)phenyl)-3,5-bis(methoxycarbonyl)-1,4-dihydropyridine-2,6-diyl)bis(methylene))bis(1-methylpiperidin-1-ium) diperchlorate [compound 9] | – | – | – | – | – | – | – | – | MH-22A IC50 (MTT) (MH-22A (mouse hepatoma) [1]; Table 1): ∗ (∗: not detected); NIH3T3 IC50 (NR) ([2]; Table 1, 24 h exposure): ∗ (∗: not detected); HT-1080 IC50 (MTT) ([3]; Table 1): ∗ (∗: not detected)
CCOC(=O)C1=C(C[n+]2ccc(C)cc2)NC(C[n+]2ccc(C)cc2)=C(C(=O)OCC)C1c1ccccc1.[Br-].[Br-] [compound 2, 1,1'-((3,5-Bis(ethoxycarbonyl)-4-phenyl-1,4-dihydropyridine-2,6-diyl)bis(methylene))-bis(4-methylpyridin-1-ium) dibromide] | > 100 µg/mL | > 1000 µg/mL | > 740 µg/mL | > 100 µg/mL | – | – | – | – | IC50 (MH-22A (mouse hepatoma) [4]; Table 1): > 100 µg/mL; LD50 (calculated, NIH3T3) (NIH3T3): > 2000 mg/kg
CCOC(=O)C1=C(C[n+]2ccc(N)cc2)NC(C[n+]2ccc(N)cc2)=C(C(=O)OCC)C1c1ccccc1.[Br-].[Br-] [compound 3, 1,1'-((3,5-Bis(ethoxycarbonyl)-4-phenyl-1,4-dihydropyridine-2,6-diyl)bis(methylene))-bis(4-aminopyridin-1-ium) dibromide] | > 740 µg/mL | > 1000 µg/mL | 441 ± 46 µg/mL | – | – | – | – | – | LD50 (calculated, NIH3T3) (NIH3T3): > 2000 mg/kg
CCOC(=O)C1=C(C[n+]2ccc(N(C)C)cc2)NC(C[n+]2ccc(N(C)C)cc2)=C(C(=O)OCC)C1c1ccccc1.[Br-].[Br-] [compound 4, 1,1'-((3,5-Bis(ethoxycarbonyl)-4-phenyl-1,4-dihydropyridine-2,6-diyl)bis(methylene))-bis(4-(dimethylamino)pyridin-1-ium) dibromide] | 608 ± 49 µg/mL | > 1000 µg/mL | 324 ± 29 µg/mL | – | – | – | – | – | LD50 (calculated, NIH3T3) (NIH3T3): > 2000 mg/kg
CCOC(=O)C1=C(C[n+]2cccc(C)c2)NC(C[n+]2cccc(C)c2)=C(C(=O)OCC)C1c1ccccc1.[Br-].[Br-] [compound 5, 1,1'-((3,5-Bis(ethoxycarbonyl)-4-phenyl-1,4-dihydropyridine-2,6-diyl)bis(methylene))-bis(3-methylpyridin-1-ium) dibromide] | > 100 µg/mL | > 1000 µg/mL | > 740 µg/mL | – | – | – | – | – | LD50 (calculated, NIH3T3) (NIH3T3): > 2000 mg/kg
CCOC(=O)C1=C(C[n+]2ccccc2)NC(C[n+]2ccccc2)=C(C(=O)OCC)C1c1ccccc1C(F)(F)F.[Br-].[Br-] [compound 6, 1,1'-((3,5-Bis(ethoxycarbonyl)-4-(2-(trifluoromethyl)phenyl)-1,4-dihydropyridine-2,6-diyl)bis(methylene))bis(pyridin-1-ium) dibromide] | > 100 µg/mL | > 1000 µg/mL | > 100 µg/mL | > 100 µg/mL | – | – | – | – | IC50 (MH-22A (mouse hepatoma) [4]; Table 1): > 100 µg/mL; LD50 (calculated, NIH3T3) (NIH3T3): > 2000 mg/kg
CCCCCCCCCCCCOC(=O)C1=C(C[n+]2ccccc2)NC(C[n+]2ccccc2)=C(C(=O)OCCCCCCCCCCCC)C1c1ccc(O)cc1.[Br-].[Br-] [compound 18, 1,1'-((3,5-Bis((dodecyloxy)carbonyl)-4-(4-hydroxyphenyl)-1,4-dihydropyridine-2,6-diyl)bis(methylene))bis(pyridin-1-ium) dibromide] | 16 ± 2 µg/mL | 95 ± 7 µg/mL | 10 ± 2 µg/mL | 4.3 ± 0.6 µg/mL | – | – | – | – | IC50 (MH-22A (mouse hepatoma) [4]; Table 1): 3.4 ± 0.6 µg/mL
CCCCCCCCCCCCOC(=O)C1=C(C[n+]2ccc(C)cc2)NC(C[n+]2ccc(C)cc2)=C(C(=O)OCCCCCCCCCCCC)C1c1ccc(O)cc1.[Br-].[Br-] [compound 19, 1,1'-((3,5-Bis((dodecyloxy)carbonyl)-4-(4-hydroxyphenyl)-1,4-dihydropyridine-2,6-diyl)bis(methylene))bis(4-methylpyridin-1-ium) dibromide] | 30 ± 8 µg/mL | 44 ± 11 µg/mL | 22 ± 5 µg/mL | 32 ± 8 µg/mL | – | – | – | – | IC50 (MH-22A (mouse hepatoma) [4]; Table 1): 21 ± 3 µg/mL
CCCCCCCCCCCCOC(=O)C1=C(C[N+](C)(C)CCCCCCCCCCCC)NC(C[N+](C)(C)CCCCCCCCCCCC)=C(C(=O)OCCCCCCCCCCCC)C1c1ccccc1.[O-][Cl+3]([O-])([O-])[O-].[O-][Cl+3]([O-])([O-])[O-] [compound 20, N,N'-((3,5-bis((dodecyloxy)carbonyl)-4-phenyl-1,4-dihydropyridine-2,6-diyl)bis(methylene))bis(N,N-dimethyldodecan-1-aminium) diperchlorate] | 10 ± 2 µg/mL | – | 3 ± 0.4 µg/mL | 3 ± 0.3 µg/mL | – | – | – | – | IC50 (MH-22A (mouse hepatoma) [4]; Table 1): 10 ± 2 µg/mL; IC50 ([2]; read-out: NIH3T3 IC50 (NR), Table 1, 24 h exposure): 19 ± 6 µg/mL
O=C1CC(c2ccccc2)C(C(=O)OCCCCC(F)(F)C(F)(F)C(F)(F)C(F)(F)C(F)(F)C(F)(F)C(F)(F)C(F)(F)F)=C(C[n+]2ccccc2)N1.[Br-] (centres unmarked) [compound 31, 1-((3-(((5,5,6,6,7,7,8,8,9,9,10,10,11,11,12,12,12-Heptadecafluorododecyl)oxy)carbonyl)-6-oxo-4-phenyl-1,4,5,6-tetrahydropyridin-2-yl)methyl)pyridin-1-ium bromide] | – | – | – | 3 ± 0.3 µg/mL | 3 ± 1 µg/mL | 3 ± 0.6 µg/mL | 15 ± 2 µg/mL | 3 ± 0.2 µg/mL | –
O=C1CC(c2ccccc2)C(C(=O)OCCCCC(F)(F)C(F)(F)C(F)(F)C(F)(F)C(F)(F)C(F)(F)C(F)(F)C(F)(F)F)=C(C[n+]2ccccc2)N1.[O-][Cl+3]([O-])([O-])[O-] (centres unmarked) [compound 32, 1-((3-(((5,5,6,6,7,7,8,8,9,9,10,10,11,11,12,12,12-Heptadecafluorododecyl)oxy)carbonyl)-6-oxo-4-phenyl-1,4,5,6-tetrahydropyridin-2-yl)methyl)pyridin-1-ium perchlorate] | – | – | – | 3 ± 0.3 µg/mL | 2 ± 0.3 µg/mL | 3 ± 0.2 µg/mL | 15 ± 3 µg/mL | 3 ± 0.5 µg/mL | –
CCCCCCCCCCCC[N+](C)(C)CC1=C(C(=O)OC)C(c2ccccc2)CC(=O)N1 (centres unmarked) [compound 33, N-((3-(methyloxycarbonyl)-6-oxo-4-phenyl-1,4,5,6-tetrahydropyridin-2-yl)methyl-N,N-dimethyldodecan-1-aminium bromide] | – | – | – | 2 ± 0.4 µg/mL | 2 ± 0.1 µg/mL | 2 ± 0.6 µg/mL | 4 ± 1 µg/mL | 1 ± 0.2 µg/mL | –
CCCCCCCCCCCCOC(=O)C1=C(C[N+](C)(C)CCCCCCCCCCCC)NC(=O)CC1c1ccccc1 (centres unmarked) [compound 34, N-((3-(dodecyloxycarbonyl)-6-oxo-4-phenyl-1,4,5,6-tetrahydropyridin-2-yl)methyl-N,N-dimethyldodecan-1-aminium bromide] | – | – | – | 2 ± 0.2 µg/mL | 3 ± 0.8 µg/mL | < 1 µg/mL | 6 ± 2 µg/mL | 2 ± 0.6 µg/mL | –
CCCCCCCCCCCC[N+](C)(C)CC1=C(C(=O)OCCCCC(F)(F)C(F)(F)C(F)(F)C(F)(F)C(F)(F)C(F)(F)C(F)(F)C(F)(F)F)C(c2ccccc2)CC(=O)N1 (centres unmarked) [compound 35, N-((3-((5,5,6,6,7,7,8,8,9,9,10,10,11,11,12,12,12-Heptadecafluorododecyloxy)carbonyl)-6-oxo-4-phenyl-1,4,5,6-tetrahydropyridin-2-yl)methyl-N,N-dimethyldodecan-1-aminium bromide] | – | – | – | 3 ± 0.3 µg/mL | 26 ± 6 µg/mL | 30 ± 8 µg/mL | 27 ± 9 µg/mL | 30 ± 11 µg/mL | –
CCCCCCCCCCCC[N+](C)(C)CC1=C(C(=O)OC)CCC(=O)N1 [compound 36, N-((3-(methyloxycarbonyl)-6-oxo-1,4,5,6-tetrahydropyridin-2-yl)methyl-N,N-dimethyldodecan-1-aminium bromide] | – | – | – | 2 ± 0.2 µg/mL | 18 ± 3 µg/mL | 16 ± 3 µg/mL | 63 ± 11 µg/mL | 1 ± 0.2 µg/mL | –
CCCCCCCCCCCCOC(=O)C1=C(C[N+](C)(C)CCCCCCCCCCCC)NC(=O)CC1 [compound 37, N-((3-(dodecyloxycarbonyl)-6-oxo-1,4,5,6-tetrahydropyridin-2-yl)methyl-N,N-dimethyldodecan-1-aminium bromide] | – | – | – | 2 ± 0.5 µg/mL | 3 ± 0.6 µg/mL | 1 ± 0.2 µg/mL | 7 ± 1 µg/mL | 3 ± 0.4 µg/mL | –
CCCCCCCCCCCCCCCCOC(=O)/C=C(\N)C[N+](C)(C)CCCCCCCCCCCC [compound 46, (Z,E)-N-(2-Amino-4-(hexadecyloxy)-4-oxobut-2-en-1-yl)-N,N-dimethyldodecan-1-aminium iodide] | – | – | – | – | – | – | – | – | IC50 in NIH3T3 cell lines [2]: around 30 μg/ml; NIH3T3 IC50 (NR) ([2]; Table 3, 24 h exposure): 34 ± 8 µg/mL; NIH3T3 LD50 (NIH3T3; Table 3, calculated from NIH3T3 IC50 by regression formula): 637 mg/kg
